Key:
OVCAR8.EGFP.ffluc cells = experiment: In vitro synergy experiment, Chou-Talalay analysis; format: cell-based, human; conditions: cisplatin <1 μM
Protocol: Tumor cells were plated at 3×10^3 cells per well in 96-well plates. Select wells also received NSC.CRAd-Survivin-pk7 at either a 1:1, 1:10, or 1:100 ratio. […] Cultures were incubated for 3 more days. Upon collection, media were replaced with that containing D-luciferin ([…]), and after a 10-min incubation, the resulting luminescent signal was quantified using a SpectraMax M3 microplate reader (Molecular Devices, CA, USA). Results are expressed as the percentage of surviving cells determined by comparing the luciferase signal of each sample relative to untreated control samples considered 100% viable. […] Each condition was replicated in quadruplet, and the experiment was conducted twice.

[1] = test system: survivin expression in OVCAR8 cell line; experiment: RT-PCR analysis of survivin expression after cisplatin, OVCAR8; format: cell-based, human; conditions: up to 2 days of cisplatin exposure; data not shown
[2] = test system: OVCAR8.EGFP flank xenografts; experiment: Subcutaneous flank OVCAR8 xenograft model; format: in vivo, mouse
Protocol: Female athymic nude mice 6-8 weeks of age (Charles River) were maintained under specific pathogen-free conditions at the COH Animal Resource Center, and all procedures were reviewed and approved by the COH Animal Care Committee. A subcutaneous flank xenograft model in nude mice was established using an EGFP and firefly luciferase-expressing ovarian cancer cell line, 2×10^6 OVCAR8.EGFP.ffluc. […] The mice were treated for […] with 1 week off in between each cycle. […] Tumor burden was evaluated via caliper measurements twice weekly over a 5-week period.
Mice began treatments approximately 2 weeks after injection of 5 million OVCAR8.EGFP cells, when the tumors were on average 0.5 cm in diameter (Table 3). The mice were treated for two cycles. Each cycle was 2 weeks long, consisting of 1 week on therapy and 1 week off. Tumor burden was evaluated via caliper measurements twice weekly over a 5-week period.

OVCAR8 peritoneal tumors = experiment: PCR biodistribution of NSCs and virus in peritoneal tumors with or without cisplatin; format: in vivo; conditions: 2 days after administration, three tumors per mouse
Protocol: Female NOD-SCID mice (Jackson Labs) that were 6-8 weeks old were inoculated with 2 million OVCAR8.eGFP.ffluc cells via i.p. injection. After 3 weeks, mice (n=3) were administered i.p. 2×10^6 Dil-labeled NSC-CRAd-Survivin-pk7. Two days after NSC injection, tumors were harvested. Three tumors per mouse were digested using proteinase K, DNA was extracted (DNA Extraction from fixed tissues kit, Puragene), quantified using a nanodrop, then amplified by PCR using primers for v-Myc and hexon to test for the presence of NSCs and viral particles respectively. GAPDH was used as a loading control (351 bp). DNA purified from unmodified NSCs and NSC-CRAd-Survivin-pk7 was used as a positive control for PCR amplification of the v-Myc gene (replicon size 170 bp), and hexon (179 bp) respectively. Pure water was used as a negative control. PCR products were analyzed by agarose gel electrophoresis and staining of DNA bands with ethidium bromide. […] Sections (10 μm thick) were collected on positively charged slides (Thermo Fisher Scientific), immunostained for hexon (Goat Anti-Adenovirus FITC Conjugated Polyclonal Antibody, AB1056F, Millipore), counterstained with DAPI (1 ug/mL, Sigma), then imaged using the Zeiss Axio Observer Z1 fluorescence microscope (ZEISS Microscopy). […]

[3] = test system: survivin expression in SKOV3 cell line; experiment: RT-PCR analysis of survivin expression after cisplatin, SKOV3; format: cell-based, human; conditions: up to 2 days of cisplatin exposure; data not shown

N.N.[Cl][Pt][Cl] [cisplatin]
effect of low doses of cisplatin on OVCAR8 tumor cells (OVCAR8.EGFP.ffluc cells): unaffected
survivin expression after cisplatin exposure [1]: did not significantly increase
tumor volume doubling time after the first treatment ([2]; control 7 days): 13 days
tumor volume doubling time after the second treatment ([2]; control 15 days): not significantly different from that of the saline control
hexon DNA detected in tumors (virus) (OVCAR8 peritoneal tumors): Neither hexon nor v-myc DNA was detected
v-myc DNA detected in tumors (NSCs) (OVCAR8 peritoneal tumors): Neither hexon nor v-myc DNA was detected
survivin expression after cisplatin exposure [3]: did not significantly increase

— US11413315B2, “Neural stem cell-mediated cancer treatment” (priority 2018, dated 2022)
